Publication PMC12562567, “Comparative Efficacy of CK2 Inhibitors CX-4945 and SGC-CK2-2 on CK2 Signaling” (International Journal of Molecular Sciences, 2025)
Read-outs that look alike come from different tables or passages of the source. One block for each compound: values may come before it.

Assays:
HeLa cells = test: MTT cell viability assay, HeLa; assay type: cell-based, human
Experimental: (§1) One hour before the end of the incubations, 10 μL of MTT solution (5 mg/mL in PBS) was added to each well. […] Plates were read at λ 540 nm absorbance, in a Titertek Multiskan Plus plate reader (Flow Laboratories, Sutton, UK).

MDA-MB-231 cells = test: MTT cell viability assay, MDA-MB-231; assay type: cell-based; conditions: for Effect on cell viability (reduction): MDA cells, 2.5 µM
Experimental: as §1

phospho-cdc37 S13 [1] = test: Western blot of phospho-cdc37 S13 (CK2 substrate) in HeLa cells; assay type: cell-based, human; conditions: 24 h
Description: (§2) . These substrates were selected based on their different responses to kinase inhibition. S129Akt was described in 2015 as a specific CK2 substrate, and its phosphorylation is highly sensitive to CK2 inhibition showing a strong early reduction. On the contrary, S13-cdc37, described in 2004 as a CK2-specific substrate, requires higher inhibitor concentrations or longer exposure times to achieve a significant impact on its phosphorylation. The phosphorylation of both substrates is reduced in CK2-knockout cells. Moreover, to gain a more comprehensive view of CK2 substrate phosphorylation, we used a phosphoantibody developed against p-Ser/p-Thr containing a CK2 consensus sequence (pS/pTDXE motif).

PARP-1 [2] = test: PARP-1 degradation/cleavage by Western blot, HeLa; conditions: HeLa cells
phospho-Akt1 S129 [3] = test: Western blot of phospho-Akt1 S129 (CK2 substrate) in HeLa cells; assay type: cell-based, human; conditions: for IC50: Homo sapiens, read-out: IC50 pS129 AKT phosphorylation
Description: as §2

phospho-cdc37 S13 [4] = test: Western blot of phospho-cdc37 S13 (CK2 substrate) in MDA-MB-231 cells; assay type: cell-based; conditions: Homo sapiens, read-out: IC50 pS13 cdc37 phosphorylation
Description: (§3) We repeated the same treatments using a different cell line, breast cancer MDA-MB-231. […] . Even though MDA-MB-231 was less responsive to the two CK2 inhibitors than HeLa cells, the overall outcome appeared similar. […] .

CSNK2A1 = system: CSNK2A1; parameters: method as in PMID 41883516; conditions: cited from earlier work
phospho-Akt1 S129 [5] = test: Western blot of phospho-Akt1 S129 (CK2 substrate) in MDA-MB-231 cells; assay type: cell-based; conditions: for IC50: Homo sapiens, read-out: IC50 pS129 AKT phosphorylation
Description: as §3

[6] = parameters: method as in PMID 37901516; conditions: 30 min of incubation; cited from earlier work
[7] = cited from earlier work
PARP-1 [8] = test: PARP-1 degradation/cleavage by Western blot, MDA-MB-231; assay type: cell-based; conditions: MDA-MB-231 cells
[9] = parameters: method as in PMID 37077385; conditions: preliminary proliferation assays; cited from earlier work
[10] = MDA-MB-231 cells, 24 h, densitometry of Western blot

IC50 (phospho-cdc37 S13 [1]; Homo sapiens, HeLa cells, densitometry of Western blot, read-out: IC50 pS13 cdc37 phosphorylation): 3000 nM
IC50 (phospho-Akt1 S129 [3]; HeLa cells, 24 h, densitometry of Western blot): 700 nM
IC50 (phospho-cdc37 S13 [4]; [10]): 4400 nM
IC50 (phospho-Akt1 S129 [5]; [10]): 900 nM
SMILES: O=C(O)c1ccc2c(c1)nc(Nc1cccc(Cl)c1)c1ccncc12 [CX-4945]
Effect on cell viability (reduction) (HeLa cells; HeLa cells, 2.5 µM, 24 h, MTT): ~ 20%
Effect on cell viability (reduction) (HeLa cells; HeLa cells, 2.5 µM, 48 h, MTT): ~ 30%
Effect on cell viability (reduction) (MDA-MB-231 cells; 24 h, MTT): ~ 5%
Effect on cell viability (reduction) (MDA-MB-231 cells; 48 h, MTT): ~ 15%
Concentration at which PARP-1 degradation (reduction in total PARP-1) is visible (PARP-1 [2]; 24 h): 10 µM
Concentration at which PARP-1 degradation (reduction in total PARP-1) is visible (PARP-1 [2]; 48 h): 5 µM
Concentration at which the 89 KDa PARP fragment is detected (PARP-1 [2]; after 48 h (first mention (so in the source))): 5 µM
Concentration at which the 89 KDa PARP fragment is detected (PARP-1 [2]; after 48 h (second mention)): 2.5 µM
Phosphorylation of Akt at Ser129 (phospho-Akt1 S129 [3]; HeLa cells, 2.5 µM (lowest concentration tested), 24 h): completely abolished
Significantly downregulated phosphopeptides determined to be CSNK2A1 dependent (CSNK2A1; after 4 h of treatment): 15%
Significantly downregulated phosphopeptides determined to be CSNK2A1 dependent (CSNK2A1; after 24 h of treatment): 5%

SMILES: CCC(=O)Nc1cc(Nc2cc(NC3CC3)n3ncc(C#N)c3n2)ccc1C [SGC-CK2-1]
Compound degraded in vitro in mouse liver microsomes [6]: 60%
Significantly downregulated phosphopeptides determined to be CSNK2A1 dependent (CSNK2A1; after 4 h of treatment): 55%
Significantly downregulated phosphopeptides determined to be CSNK2A1 dependent (CSNK2A1; after 24 h of treatment): 55%
Aqueous solubility [7]: moderate

SMILES: O=C(O)c1ccc2c(c1)nc(NCc1ccccc1)c1ncncc12 [SGC-CK2-2]
Reduction in cell viability achieved (HeLa cells; HeLa cells, 24 h, all concentrations tested (up to 40 µM), MTT): < 50%
Effect on cell viability (HeLa cells; HeLa, 2.5 µM, 24 h treatment): no significant effect
Degradation of PARP-1 (PARP-1 [8]; 24 h, all concentrations tested): did not induce any degradation
Concentration giving significant PARP-1 degradation (PARP-1 [8]; 48 h): ≥ 20 µM
Effect on cell viability (MDA-MB-231 cells; MDA, 5 µM, 24 h treatment): no significant effect
Reduction in cell viability achieved (MDA-MB-231 cells; MDA-MB-231 cells, 24 h, all concentrations tested (up to 40 µM), MTT): < 50%
IC50 (phospho-cdc37 S13 [1]; Homo sapiens, HeLa, read-out: IC50 pS13 cdc37 phosphorylation, HeLa cells, 24 h, densitometry of Western blot): 9000 nM
IC50 (phospho-cdc37 S13 [1]; read-out: IC50 pS13 cdc37 phosphorylation, HeLa cells, densitometry of Western blot): 9900 nM
Concentration at which PARP-1 degradation (reduction in total PARP-1) is visible (PARP-1 [2]; 24 h): 40 µM
Concentration at which PARP-1 degradation (reduction in total PARP-1) is visible (PARP-1 [2]; 48 h): 20 µM
Concentration that nearly abolishes Akt S129 phosphorylation (phospho-Akt1 S129 [3]; HeLa, 24 h treatment): 2.5 µM
IC50 (phospho-Akt1 S129 [3]; HeLa, 24 h): 2200 nM
Antiproliferative effects [9]: lacks antiproliferative effects
IC50 (phospho-cdc37 S13 [4]; MDA-MB-231, 24 h): 20400 nM
IC50 (phospho-Akt1 S129 [5]; MDA-MB-231, 24 h): 1300 nM
Concentration that nearly abolishes Akt S129 phosphorylation (phospho-Akt1 S129 [5]; MDA, 24 h treatment): 5 µM
Aqueous kinetic solubility relative to SGC-CK2-1 [7]: markedly improved
